# “Also recorded” adds a separate entry of the source.
# Tests used:
# NCI-H660 cells [1] = assay: cells; details: Homo sapiens, NCI-H660, 144 h, read-out: % cell viability relative to 10 nM HC treatment
# CWRR1-Ctl cells [2] = assay: Propidium iodide staining, cell cycle status; assay type: cell-based, human; details: 10 μM ENZ, 0.8 μM MK-1775, 6 days
# Protocol: FIGS. 5A-5C. […] (FIG. 5A) Western blotting in CWRR1-Ctl cells cultured in 10% CSS supplemented with R-1881 and treated with: Vehicle (R; 3.5 μM R-1881), and AR-inhibited conditions ([…] R/10 μM ENZ)+/−0.8 μM MK-1775 (WEE1 inhibition) comparing phosphorylated Histone H3 (indicator of cells in M phase) and cleaved PARP (indicator of apoptosis). 3-Actin was blotted as a loading control. […] (FIG. 5C) β-galactosidase activity in CWRR1-Ctl cells treated with either 10 μM ENZ or 10 μM ENZ in combination with 0.8 μM MK-1775 for 6 days. […] Error bars for propidium iodide staining and β-galactosidase activity data represent +/−SEM of 6 replicates tested in each condition, respectively.
# WEE1 plays a central role in negatively regulating mitotic phase entry (i.e. the G2/M checkpoint) through phosphorylation of CDK1 [29]. […] PARP-1 is a known substrate of caspase-mediated apoptotic cell death, and cleaved PARP (c-PARP) is a hallmark of apoptosis.
# CWRR1-SOX2KO cells = assay: Proliferation assay, Incucyte S3 live imaging of nuclear GFP, CWRR1-SOX2KO cells; assay type: cell-based, human; details: 10% CSS supplemented with R-1881, 150 h
# [3] = tested on: E2F1, WEE1, CDK1 and p57 in SOX2KO cells; assay: Western blotting in CWRR1-SOX2KO cells; assay type: cell-based, human; details: Western blot
# Protocol: FIGS. 1A-1D. RNA-seq in Control (Ctl) and -SOX2Ko Cells. Ctl or SOX2^KO cells were cultured in 10% charcoal-stripped media with vehicle (R-1881) or ENZ for 72 hrs, then total RNA was recovered for RNA-seq. […] (FIG. 1B) Top gene set pathways enriched by KEGG using Web Gestalt for unique, differentially expressed genes in SOX2^KO cells following ENZ treatment relative to vehicle. Pathways are ranked by strength of significance (P-value). (FIG. 1C) Normalized counts from RNA-seq of representative cell cycle-related genes (CDK1, E2F1, WEE1, CDKN2A, TGFB1, and CDKN1C) across treatment conditions for Ctl and SOX2^KO cells are graphed. Error bars for normalized count data represent +/−SEM for triplicate samples in each condition. Asterisks represent significant differences with the following adjusted p-values: **1E-03 to 1E-09, ***1.0E-10 to 1.0E-19, ****[…] 1.0E-20. (FIG. 1D) Western blots in Ctl and SOX2^KO cells treated with (3.5 μM R-1881) vehicle or ENZ ([…]) for SOX2 and cell cycle proteins encoded by highlighted genes: WEE1, E2F1, CDK1, and p57, confirm relative expression levels observed by RNA-seq. j-Actin was blotted as a loading control. […]
# [4] = tested on: CWRR1-Ctl xenograft tumors; assay: CRPC xenograft model, time to 4x tumor volume; assay type: in vivo, athymic nude mice; details: 10 mg/kg ENZ, 50 mg/kg MK-1775, daily for 30 days; for median time to endpoint (4x tumor volume relative to volume at randomization): censored at day 31
# Protocol: To strengthen the correlation between in vitro and […] studies thereby enhancing translational relevance, an in vivo experiment using a CRPC xenograft model was performed. Following inoculation with CWRR1-Ctl cells, tumor bearing athymic nude mice with a measured tumor volume of ˜150-200 mm^3 were randomized into 4 treatment arms: Vehicle (N=5), 10 mg/kg ENZ (N=8), 50 mg/kg MK-1775 (N=8), and 10 mg/kg ENZ+50 mg/kg MK-1775 (N=8). Mice were treated daily for a period of 30 days. Endpoint for this study was defined as time to 4× tumor volume relative to volume at randomization, representing a lethal tumor burden. Mice who had not reached endpoint at 30 days of treatment were censored at day 31. […] Median time to endpoint for vehicle-, ENZ- and WEE1i-treated mice was 21, 29.5 and 29.5 days, respectively, compared to ENZ+WEE1i-treated mice, which was not reached, as 75% of mice remained without defined progression at 31 days (FIG. 4D).
# [5] = tested on: CDK1, pCDK1, pHistone H3 and cleaved PARP in CWRR1-Ctl cells; assay: Western blotting in CWRR1-Ctl cells; assay type: cell-based, human; details: Western blot
# CWRR1-Ctl cells [6] = assay: Proliferation assay, Incucyte S3 live imaging of nuclear GFP, SOX2-positive CWRR1-Ctl cells; assay type: cell-based, human; details: 10% CSS supplemented with R-1881, 150 h (~6 days)
# [7] = tested on: CDK1, pCDK1 and pHistone H3 in NCI-H660 cells; assay: Western blotting in NCI-H660 cells; assay type: cell-based, human; details: Western blot
# NCI-H660 cells [8] = details: 6 days
smiles,measurement,setting,value
"C[C@@H]1C[C@H]2[C@@H]3CCC4=CC(=O)C=C[C@]4(C)[C@@]3(F)[C@@H](O)C[C@]2(C)[C@@]1(O)C(=O)CO [DEX, dexamethasone]",viability at 0.1 µM,NCI-H660 cells [1],105%
"CNC(=O)c1ccc(N2C(=S)N(c3ccc(C#N)c(C(F)(F)F)c3)C(=O)C2(C)C)cc1F [ENZ, enzalutamide]",% cells at G2/M cell cycle phase,CWRR1-Ctl cells [2],11.95%
same,proliferative capacity compared to vehicle,CWRR1-SOX2KO cells,significantly lower
same,"E2F1, WEE1 and CDK1 expression levels",[3]; SOX2KO cells upon AR inhibition,notably lower
same,p57 expression,[3]; SOX2KO cells with AR antagonism,highest expression
same,time to endpoint relative to vehicle,[4],no significant differences
same,median time to endpoint (4x tumor volume relative to volume at randomization),[4],29.5 days
same,phosphorylated Histone H3 (pHistone H3),[5],low
same,proliferative capacity relative to vehicle,CWRR1-Ctl cells [6],no effect; also recorded: little effect
C=CCn1c(=O)c2cnc(Nc3ccc(N4CCN(C)CC4)cc3)nc2n1-c1cccc(C(C)(C)O)n1 [MK-1775],pHistone H3 relative to DEX and CORT134 treatment alone,[7],increased
same,time to endpoint relative to vehicle,[4],no significant differences
same,median time to endpoint (4x tumor volume relative to volume at randomization),[4],29.5 days
same,cleaved PARP (c-PARP),[5],increased
same,phosphorylated Histone H3 (pHistone H3),[5],increases appreciably
same,pCDK1 protein expression,[5]; when WEE1i was present,markedly lower
same,proliferative capacity relative to vehicle,CWRR1-Ctl cells [6],no significant difference
"Cn1cc(S(=O)(=O)N2CCC3=Cc4c(cnn4-c4ccc(F)cc4)C[C@]3(C(=O)c3cc(C(F)(F)F)ccn3)C2)cn1 [CORT134, relacorilant]",viability at 1 µM,NCI-H660 cells [1],91.8%
same,cell viability relative to control,NCI-H660 cells [8],minimal differences

# — patent US20250345334A1, “METHODS OF TREATING PROSTATE CANCER” (The University of Chicago, priority 2024, published 2025)
